Results reported in the Kinase Knowledgebase extract (Sharma et al. 2016).

How the values were obtained:
Assay in all cases: Enzyme Assay
PIK3CA (human) = PIK3CA (human) (UniProt P42336)
PIK3CB (Human) = PIK3CB (Human) (UniProt P42338)
PIK3CD (Human) = PIK3CD (Human) (UniProt O00329)
PIK3CG (human) = PIK3CG (human) (UniProt P48736)
Chain of PIK3CG (human) (P48736 whole entry, looked up): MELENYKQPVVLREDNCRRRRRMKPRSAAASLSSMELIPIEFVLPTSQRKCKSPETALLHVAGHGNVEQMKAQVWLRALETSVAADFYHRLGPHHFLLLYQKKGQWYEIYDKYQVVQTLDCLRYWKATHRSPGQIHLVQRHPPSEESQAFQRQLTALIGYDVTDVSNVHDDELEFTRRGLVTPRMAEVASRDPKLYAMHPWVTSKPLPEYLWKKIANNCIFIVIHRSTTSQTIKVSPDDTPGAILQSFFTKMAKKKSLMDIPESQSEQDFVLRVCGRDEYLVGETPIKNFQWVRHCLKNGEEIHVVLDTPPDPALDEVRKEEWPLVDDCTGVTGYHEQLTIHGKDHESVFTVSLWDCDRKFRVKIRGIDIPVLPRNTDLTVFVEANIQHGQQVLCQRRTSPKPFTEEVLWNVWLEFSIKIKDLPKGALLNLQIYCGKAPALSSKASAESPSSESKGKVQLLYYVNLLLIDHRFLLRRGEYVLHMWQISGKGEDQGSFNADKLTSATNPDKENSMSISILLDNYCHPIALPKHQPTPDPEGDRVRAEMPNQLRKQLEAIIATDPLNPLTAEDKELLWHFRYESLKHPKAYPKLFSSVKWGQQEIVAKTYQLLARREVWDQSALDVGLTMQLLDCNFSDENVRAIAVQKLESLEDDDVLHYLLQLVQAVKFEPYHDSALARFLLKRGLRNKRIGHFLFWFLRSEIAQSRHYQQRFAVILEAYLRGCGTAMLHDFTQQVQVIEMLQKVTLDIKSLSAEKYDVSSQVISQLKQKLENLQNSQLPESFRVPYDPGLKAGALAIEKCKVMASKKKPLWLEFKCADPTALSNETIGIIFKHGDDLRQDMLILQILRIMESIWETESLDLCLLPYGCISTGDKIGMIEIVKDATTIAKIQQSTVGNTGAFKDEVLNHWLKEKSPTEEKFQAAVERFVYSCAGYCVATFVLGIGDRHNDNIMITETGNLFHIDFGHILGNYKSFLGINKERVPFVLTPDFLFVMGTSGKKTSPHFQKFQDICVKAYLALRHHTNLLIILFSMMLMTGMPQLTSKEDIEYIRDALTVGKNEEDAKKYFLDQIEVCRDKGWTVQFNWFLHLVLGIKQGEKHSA

Chain of PIK3CB (Human) (P42338 whole entry, looked up): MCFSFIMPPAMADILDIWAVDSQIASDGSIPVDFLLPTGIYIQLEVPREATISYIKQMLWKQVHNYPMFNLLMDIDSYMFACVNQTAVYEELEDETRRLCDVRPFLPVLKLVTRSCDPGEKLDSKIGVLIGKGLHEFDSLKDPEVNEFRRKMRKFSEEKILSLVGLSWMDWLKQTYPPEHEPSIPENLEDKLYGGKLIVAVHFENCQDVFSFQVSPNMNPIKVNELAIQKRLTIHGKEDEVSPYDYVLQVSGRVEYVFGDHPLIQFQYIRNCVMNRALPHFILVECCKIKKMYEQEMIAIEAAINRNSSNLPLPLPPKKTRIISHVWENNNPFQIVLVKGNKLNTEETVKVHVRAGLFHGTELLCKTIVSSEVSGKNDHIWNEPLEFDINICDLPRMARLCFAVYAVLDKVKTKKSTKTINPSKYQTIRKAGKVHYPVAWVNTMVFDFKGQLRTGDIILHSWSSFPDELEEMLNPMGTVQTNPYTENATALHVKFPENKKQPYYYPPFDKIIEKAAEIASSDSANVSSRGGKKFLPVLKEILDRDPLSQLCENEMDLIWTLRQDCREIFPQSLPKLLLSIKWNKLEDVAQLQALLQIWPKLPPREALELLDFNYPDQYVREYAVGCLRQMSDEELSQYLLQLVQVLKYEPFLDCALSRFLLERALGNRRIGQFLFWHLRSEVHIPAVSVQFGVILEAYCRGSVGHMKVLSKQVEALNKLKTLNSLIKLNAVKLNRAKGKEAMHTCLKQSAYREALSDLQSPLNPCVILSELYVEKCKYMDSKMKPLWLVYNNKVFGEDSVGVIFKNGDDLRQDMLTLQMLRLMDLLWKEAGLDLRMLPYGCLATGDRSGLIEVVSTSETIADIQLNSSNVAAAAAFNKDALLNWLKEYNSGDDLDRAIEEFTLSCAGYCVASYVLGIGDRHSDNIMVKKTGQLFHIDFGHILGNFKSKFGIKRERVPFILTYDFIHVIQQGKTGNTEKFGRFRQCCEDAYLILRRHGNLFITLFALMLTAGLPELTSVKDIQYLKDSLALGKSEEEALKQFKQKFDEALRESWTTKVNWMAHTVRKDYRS
Chain of PIK3CA (human) (P42336 whole entry, looked up): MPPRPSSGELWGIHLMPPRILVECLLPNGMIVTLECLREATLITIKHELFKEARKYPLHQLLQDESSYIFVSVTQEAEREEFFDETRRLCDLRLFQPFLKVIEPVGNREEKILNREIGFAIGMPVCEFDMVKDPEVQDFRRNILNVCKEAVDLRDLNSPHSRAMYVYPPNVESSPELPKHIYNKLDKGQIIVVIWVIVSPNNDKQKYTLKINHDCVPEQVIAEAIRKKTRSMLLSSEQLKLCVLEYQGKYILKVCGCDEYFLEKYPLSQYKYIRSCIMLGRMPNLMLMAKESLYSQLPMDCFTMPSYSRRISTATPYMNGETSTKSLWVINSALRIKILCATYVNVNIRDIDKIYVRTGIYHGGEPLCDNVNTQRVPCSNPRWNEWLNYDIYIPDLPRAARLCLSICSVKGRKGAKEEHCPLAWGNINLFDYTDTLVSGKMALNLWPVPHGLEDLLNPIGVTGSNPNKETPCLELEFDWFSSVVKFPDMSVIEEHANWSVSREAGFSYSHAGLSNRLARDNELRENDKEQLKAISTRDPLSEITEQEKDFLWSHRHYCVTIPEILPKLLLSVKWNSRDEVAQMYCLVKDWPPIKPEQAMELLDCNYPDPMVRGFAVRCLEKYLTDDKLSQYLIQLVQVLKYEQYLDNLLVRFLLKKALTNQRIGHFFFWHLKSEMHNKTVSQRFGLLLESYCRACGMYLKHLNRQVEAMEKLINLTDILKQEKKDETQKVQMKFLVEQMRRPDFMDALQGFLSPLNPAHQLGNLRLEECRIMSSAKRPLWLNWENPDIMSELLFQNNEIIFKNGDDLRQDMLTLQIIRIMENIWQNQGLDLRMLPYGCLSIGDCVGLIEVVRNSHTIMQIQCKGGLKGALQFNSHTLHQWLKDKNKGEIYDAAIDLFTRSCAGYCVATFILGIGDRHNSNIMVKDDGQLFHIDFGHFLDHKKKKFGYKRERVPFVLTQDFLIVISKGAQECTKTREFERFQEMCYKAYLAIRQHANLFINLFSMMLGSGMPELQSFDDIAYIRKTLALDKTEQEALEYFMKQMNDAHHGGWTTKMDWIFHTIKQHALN
Chain of PIK3CD (Human) (O00329 whole entry, looked up): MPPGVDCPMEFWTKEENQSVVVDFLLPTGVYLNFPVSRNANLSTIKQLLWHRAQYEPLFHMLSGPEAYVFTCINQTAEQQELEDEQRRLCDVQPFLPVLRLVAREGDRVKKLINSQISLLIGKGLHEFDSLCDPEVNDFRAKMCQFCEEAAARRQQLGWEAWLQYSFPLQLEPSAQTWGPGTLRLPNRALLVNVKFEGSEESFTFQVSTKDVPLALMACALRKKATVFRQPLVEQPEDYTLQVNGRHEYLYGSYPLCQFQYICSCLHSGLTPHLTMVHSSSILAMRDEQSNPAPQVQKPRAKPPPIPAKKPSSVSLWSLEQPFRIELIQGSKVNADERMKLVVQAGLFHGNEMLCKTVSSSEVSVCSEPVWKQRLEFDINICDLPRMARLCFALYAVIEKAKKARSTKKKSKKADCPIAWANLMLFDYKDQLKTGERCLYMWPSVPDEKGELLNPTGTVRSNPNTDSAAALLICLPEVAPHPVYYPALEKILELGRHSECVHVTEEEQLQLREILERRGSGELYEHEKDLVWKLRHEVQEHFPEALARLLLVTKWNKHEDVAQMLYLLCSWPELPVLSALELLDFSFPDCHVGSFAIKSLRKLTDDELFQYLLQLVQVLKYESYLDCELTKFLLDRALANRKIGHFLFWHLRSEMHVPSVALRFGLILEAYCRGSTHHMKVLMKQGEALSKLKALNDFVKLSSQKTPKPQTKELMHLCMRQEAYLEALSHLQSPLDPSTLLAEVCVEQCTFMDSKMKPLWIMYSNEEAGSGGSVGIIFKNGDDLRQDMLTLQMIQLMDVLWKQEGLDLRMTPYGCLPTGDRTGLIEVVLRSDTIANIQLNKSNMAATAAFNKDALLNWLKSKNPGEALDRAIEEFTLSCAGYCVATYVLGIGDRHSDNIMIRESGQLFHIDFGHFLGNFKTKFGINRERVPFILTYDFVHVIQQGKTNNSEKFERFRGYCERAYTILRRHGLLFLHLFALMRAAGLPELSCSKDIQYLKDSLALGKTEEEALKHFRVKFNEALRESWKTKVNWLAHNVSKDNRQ

Row | Structure (SMILES) | IC50 (PIK3CA (human)) [µM] | IC50 (PIK3CB (Human)) [µM] | IC50 (PIK3CD (Human)) [µM] | IC50 (PIK3CG (human)) [µM]
1 | C[C@H](Nc1ncnc2nc[nH]c12)c1nc2ccc(F)cc2c(=O)n1-c1ccccc1 | 5.44 | – | 0.012 | 1.39
2 | CN(CCO)S(=O)(=O)c1cncc(-c2ccc3nc(NC(=O)NCCc4noc(C(C)(C)C)n4)sc3c2)c1 | 1.68 | 0.062 | 0.166 | 0.003
3 | O=C1NC(=O)/C(=C/c2ccc(-c3ccc(F)cc3O)o2)S1 | 1.07 | > 20 | > 20 | –
4 | Fc1ccc2[nH]ccc2c1-c1nc(N2CCOCC2)c2sc(CN3CCN(CC4CC4)CC3)cc2n1 | 0.91 | 2.65 | 0.005 | > 1000
5 | CC(C)(O)CNc1ncc(-c2ccnc(Nc3ccnc(Cl)c3)n2)c(CC2CC2)n1 | – | – | – | 2
6 | CC(C)(C)NS(=O)(=O)c1cncc(-c2cc(F)c3nc(N)nn3c2)c1 | > 10 | 1.1 | 8.2 | 0.027

Results, then the molecule that gave them:

Row | IC50 (PIK3CA (human)) [µM] | IC50 (PIK3CB (Human)) [µM] | IC50 (PIK3CD (Human)) [µM] | IC50 (PIK3CG (human)) [µM] | Structure (SMILES)
7 | 61 | 0.13 | 0.63 | > 100 | Cc1ccccc1Oc1cccc2c(=O)cc(N3CCOCC3)[nH]c12
8 | – | > 10 | > 10 | > 10 | C[C@@H]1COCCN1c1cc(=O)n2c(n1)N(Cc1cncc(Cl)c1)[C@H](C(F)(F)F)CC2
9 | 3.96 | – | 1.2 | 3.04 | Nc1ncc(-c2ccnc(Nc3ccncc3)n2)c(CC2CC2)n1
